Test results: patent US8658668B2, “PI3 kinase/mTOR dual inhibitor” (Eli Lilly and Company, priority 2011, dated 2014)

How the values were obtained:
[1] = system: human renal carcinoma cells 786-O; assay: Xenograft tumor model, 786-O; type: in vivo, mouse; details: oral gavage
Experimental: Expand human glioblastoma cells U87MG and human renal carcinoma cells 786-O, in culture, harvest and inject subcutaneously onto the rear flank of athymic nude mice. Expand human non-small cell lung cancer cells NCI-H1975 in culture, harvest and inject subcutaneously onto the rear flank of CD-1 nu/nu mice. Prepare test compound in an appropriate vehicle and administer by oral gavage when tumors are established (7-21 days after implant). Tumor response is determined by tumor volume measurement performed twice a week during the course of treatment. Body weight is taken as a general measurement of toxicity.

[2] = system: LXFL 529 human tumor xenograft cells; assay: Oncotest tumor clonogenic assay, LXFL 529; type: cell-based; details: colony formation, NSCLC LXFL 529, large cell lung carcinoma, pd, read-out: Absolute IC50
[3] = system: MAXF 1384 human tumor xenograft cells; assay: Oncotest tumor clonogenic assay, MAXF 1384; type: cell-based; details: colony formation, Mammary MAXF 1384, adeno carcinoma, pd, read-out: Absolute IC50
[4] = system: CXF 676 human tumor xenograft cells; assay: Oncotest tumor clonogenic assay, CXF 676; type: cell-based; details: colony formation, Colon CXF 676, adeno carcinoma, md, read-out: Absolute IC50

IC50 [2]: 128 nM
IC50 [3]: 243 nM
IC50 [4]: 350 nM
SMILES: CO[C@@H](C)Cn1c(=O)n(C)c2cnc3ccc(-c4cncc(C(C)(C)O)c4)cc3c21 [Example 1, 8-[5-(1-Hydroxy-1-methylethyl)pyridin-3-yl]-1-[(2S)-2-methoxypropyl]-3-methyl-1,3-dihydro-2H-imidazo[4,5-c]quinolin-2-one]
% TGI ([1]; 3 mg/kg BID): 33.9%
% TGI ([1]; 6 mg/kg BID): 56.9%
% TGI ([1]; 10 mg/kg BID): 70.2%
